The results in this text go back to patent publication US20080299140A1, “Immunogenic Composition and Peptide Sequences for Prevention and Treatment of an Hsv Condition” (priority 2002, published 2008).

As a reminder, the IC50 is the midpoint of a concentration-inhibition curve.

SMILES strings stand for the structures. Like-named read-outs stand apart in the source and are kept apart here.

For test [1], the target named is T1, DR7=HLA-DR(α1*0101,α1*0701) (Homo sapiens, UniProt P01903+P01911, A100R/A102G/A103Q/D57E/D86V/E43K/F76Y/K127E/L162R/M171V/P40G/Q125H/Q99D/R33Q/R42Y/R54Q/S133A/S66F/T210M/V115G/Y107V/Y59L/Y89S).
T1 construct: endogenous in cells; host or cells: EBV homozygous human B cell line
Briefly: HLA-DR specific binding assay, DR7.

Test [2] relates to HLA-DR and HLA-DP molecules. Briefly: MHC class II binding assays, panel of twelve HLA class II molecules (number of alleles bound). The settings on record: number of the twelve class II MHC alleles bound; title: Threshold 600 nM/5 alleles.
The target in test [3] is T2, DR15=HLA-DR(α1*0101,α1*1501) (Homo sapiens, UniProt P01903+P01911).
T2 construct: endogenous in cells; host or cells: EBV homozygous human B cell line
Briefly: HLA-DR specific binding assay, DR15.

Test [4] addresses T3, DRB5=HLA-DR(α1*0101,α5*0101) (Homo sapiens, UniProt P01903+Q30154).
T3 construct: endogenous in cells; host or cells: EBV homozygous human B cell line
As to the kind of experiment: biochemical. Type of test: binding.

Test [5] deals with T4, DR11=HLA-DR(α1*0101,α1*1101) (Homo sapiens, UniProt P01903+P01911, A100R/A169T/A87E/I96F/K41T/L162R/M171V/P40S/Q125H/Q178H/Q39Y/Q99D/R42S/S66Y/T262R/V115G/W38E).
T4 construct: endogenous in cells; host or cells: SWEIG (EBV homozygous B cell line)
Briefly: biochemical. Type of test: binding.

For test [6], the target named is T5, DR1=HLA-DR(α1*0101,α1*0101) (Homo sapiens, UniProt P01903+P01911, A100R/D57E/F55L/F60I/F76Y/I96L/L162R/M171V/P40L/Q125E/R42F/V115G/Y59C).
T5 construct: endogenous in cells; host or cells: EBV homozygous human B cell line
As to the kind of experiment: biochemical. It is filed as binding. The note with it: […].

Test [7] concerns lymphocytes obtained from HSV-1 infected H-2^d mice. As to the kind of experiment: HSV-primed T-cell responses to gD peptides in HSV-1 infected mice. Type of test: cell-based. The settings on record: for immunodominance of epitopes in HSV-primed T-cell responses: HSV-1 infected H-2^d mice. The procedure: Twelve days after the second immunization, spleen and inguinal lymph nodes (LN) were removed and placed into ice-cold serum free HL-1 medium supplemented with 15 mM HEPES, 5×10^−5 M β-mercaptoethanol, 2 mM glutamine, 50 U of penicillin and 50 μg of streptomycin (GIBCO-BRL, Grand Island, N.Y.) (complete medium, CM). The cells were cultured in 96-well plates at 5×10^5 cells/well in CM, with recall or control peptide at 30, 10, 3, 1, or 0.3 μg/ml concentration, as previously described in (BenMohamed et al., 2000 and 2002). The cell suspensions were incubated for 72 h at 37° C. in 5% CO2. One μCi (micro-curie) of (^3H)-thymidine (Dupont MEN, Boston, Mass.) was added to each well during the last 16 h of culture. The incorporated radioactivity was determined by harvesting cells onto glass fiber filters and counted on a Matrix 96 direct ionization-counter (Packard Instruments, Meriden, Conn.). Results were expressed as the mean cpm of cell-associated (^3H)-thymidine recovered from wells containing Ag minus the mean cpm of cell-associated (^3H)-thymidine recovered from wells without Ag (A cpm) (average of triplicate). The Stimulation Index (SI) was calculated as the mean cpm of cell-associated (^3H)-thymidine recovered from wells containing Ag divided by the mean cpm of cell-associated (^3H)-thymidine recovered from wells without Ag (average of triplicate). For all experiments the irrelevant control peptide gB141-165 and the T-cell mitogen Concanavalin A (ConA) (Sigma, St. Louis, Mo.) were used as negative and positive controls, respectively. Proliferation results were confirmed by repeating each experiment twice. A T-cell proliferative response was considered positive when A cpm>1000 and SI>2.
To define the fine specificity of broadly reactive T-cells associated with viral immunity and to explore immunodominance in the context of HSV infection, proliferation of lymphocytes obtained from twenty HSV-1 infected H-2^d mice were evaluated using the twelve gD peptides as Ag (FIG. 6). […] Despite a difference between individual mice, a unique array of T-cell responses was identified for each of the twenty infected mice analyzed.

Test [8] deals with T6, DR3=HLA-DR(α1*0101,α1*0301) (Homo sapiens, UniProt P01903+P01911, A100K/A102G/A103R/A169T/F55Y/I96L/K41T/L162R/M171V/P40S/Q125H/Q178H/Q39Y/R42S/S66N/T106N/T262R/W38E/Y61H).
T6 construct: endogenous in cells; host or cells: STEILIN (EBV homozygous B cell line)
Briefly: HLA-DR specific binding assay, DR3.

The target in test [9] is T7, DR4=HLA-DR(α1*0101,α1*0401) (Homo sapiens, UniProt P01903+P01911, A100K/A169T/F76Y/I96L/K127E/L162R/M171V/N62H/P40V/Q125Y/R42H/S133A/S149N/S66Y/V115G/V209L/W38E).
T7 construct: endogenous in cells; host or cells: BOLETH (EBV homozygous B cell line)
As to the kind of experiment: biochemical. It is filed as binding.

The target of test [10] is T8, DR13=HLA-DR(α1*0101,α1*1301) (Homo sapiens, UniProt P01903+P01911, A100E/A169T/K41T/L162R/M171V/P40S/Q125H/Q178H/Q39Y/Q99D/R42S/S66N/T262R/W38E/Y61H).
T8 construct: endogenous in cells; host or cells: 0206AD (EBV homozygous B cell line)
Briefly: HLA-DR specific binding assay, DR13.

Where [11] appears, read: Table V, […], read-out: IC50 DRB5.
[12] abbreviates: Class II MHC allele DR1, read-out: IC50, DR1.
Where [13] appears, read: IC50, DR3, Class II MHC allele DR3.
[14] abbreviates: Class II MHC allele DR4, read-out: IC50, DR4.
The mark [15] stands for this setting: Table V, […], read-out: IC50 DR4.
Where [16] appears, read: read-out: IC50, DR13, Class II MHC allele DR13.

T3 sequence (Q30154 30-266, other chains not shown): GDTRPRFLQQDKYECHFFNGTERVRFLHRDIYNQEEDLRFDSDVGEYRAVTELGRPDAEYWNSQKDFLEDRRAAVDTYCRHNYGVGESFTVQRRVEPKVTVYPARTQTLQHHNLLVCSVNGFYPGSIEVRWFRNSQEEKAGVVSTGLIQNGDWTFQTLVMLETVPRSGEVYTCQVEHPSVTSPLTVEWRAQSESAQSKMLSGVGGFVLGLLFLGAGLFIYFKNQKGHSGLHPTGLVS

With `CC[C@H](C)[C@H](NC(=O)[C@@H]1CCCN1C(=O)[C@H](CS)NC(=O)[C@H](C)NC(=O)CNC(=O)[C@H](CC(C)C)NC(=O)[C@H](CO)NC(=O)[C@H](CCCCN)NC(=O)[C@@H](N)CC(N)=O)C(=O)N[C@@H](CCCNC(=N)N)C(=O)N[C@H](C(=O)N[C@@H](CCC(N)=O)C(=O)N1CCC[C@H]1C(=O)N[C@@H](CCCNC(=N)N)C(=O)N[C@@H](Cc1c[nH]c2ccccc12)C(=O)N[C@@H](CC(N)=O)C(=O)N[C@@H](Cc1ccc(O)cc1)C(=O)N[C@@H](Cc1ccc(O)cc1)C(=O)N[C@@H](CC(=O)O)C(=O)N[C@@H](CO)C(=O)N[C@@H](Cc1ccccc1)C(=O)N[C@@H](CO)C(=O)N[C@@H](C)C(=O)N[C@H](C(=O)N[C@@H](CO)C(=O)N[C@@H](CCC(=O)O)C(=O)N[C@@H](CC(=O)O)C(=O)N[C@@H](CC(N)=O)C(=O)N[C@@H](CC(C)C)C(=O)NCC(=O)N[C@@H](Cc1ccccc1)C(=O)N[C@@H](CC(C)C)C(=O)O)C(C)C)[C@@H](C)O` [HSV 33], the half-inhibitory concentration (IC50) in test [1] was 19 nM; in [3] it was 2 nM; in test [4] (setting [11]), 134 nM; in test [5] (Class II MHC allele DR11, read-out: IC50, DR11), 289 nM; in test [5] (Table V, […], read-out: IC50 DR11), 289 nM; in test [6] (Table V, read-out: IC50 DR1) it was 53 nM. The IC50 was 53 nM in [6] (setting [12]); 66 nM in test [8] (setting [13]); 66 nM in [8] (IC50 DR3, Table V, […]); 6 nM in test [9] (setting [14]); 8 nM in test [9] (setting [15]); 0.16 µM in test [10]. In test [2], this compound displayed a Range of 12. Further, in [7], the “immunodominance of epitopes in HSV-primed T-cell responses” value (“immunodominance of epitopes” below) is “subdominant epitopes”.

With `CC[C@H](C)[C@H](NC(=O)[C@H](CO)NC(=O)[C@@H]1CCCN1C(=O)[C@@H](NC(=O)[C@H](Cc1c[nH]cn1)NC(=O)[C@H](Cc1c[nH]c2ccccc12)NC(=O)[C@H](CC(N)=O)NC(=O)[C@@H]1CCCN1C(=O)[C@@H]1CCCN1C(=O)[C@@H](NC(=O)[C@H](CCC(N)=O)NC(=O)[C@@H]1CCCN1C(=O)[C@H](C)N)[C@@H](C)CC)[C@@H](C)CC)C(=O)N[C@@H](CCC(N)=O)C(=O)N[C@@H](CC(=O)O)C(=O)N[C@@H](C)C(=O)N[C@@H](C)C(=O)N[C@H](C(=O)N1CCC[C@H]1C(=O)N[C@@H](Cc1ccc(O)cc1)C(=O)N[C@@H](Cc1c[nH]cn1)C(=O)N1CCC[C@H]1C(=O)N1CCC[C@H]1C(=O)N[C@@H](C)C(=O)N[C@H](C(=O)N1CCC[C@H]1C(=O)N[C@@H](CC(N)=O)C(=O)N[C@@H](CC(N)=O)C(=O)N[C@@H](CCSC)C(=O)NCC(=O)N[C@@H](CC(C)C)C(=O)O)[C@@H](C)O)[C@@H](C)O` [HSV 35], the IC50 worked out at 2450 nM in test [1]; 6790 nM in [3]; 4500 nM in test [4] (setting [11]); 25000 nM in test [5] (IC50, DR11); 25000 nM in test [5] (IC50 DR11); 3160 nM in test [6] (Table V, read-out: IC50 DR1). Besides, the IC50 in [6] (setting [12]) was 3160 nM; in test [8] (setting [13]) it was 19500 nM; in test [8] (IC50 DR3, Table V, […]), 19500 nM; in [9] (setting [14]), 600 nM; in test [9] (setting [15]), 600 nM; in [10], greater than 100 µM. In addition, the half-inhibitory concentration (IC50) in test [10] (setting [16]) is greater than 100 µM. The compound also gave a Range in test [2] of 1. Further, the “T-cell responses recalled in HSV infected mice” value in test [7] (HSV infected H-2^d mice (FIG. 6)) is listed as “either low or no response”. The “immunodominance of epitopes” value in test [7] is “immunodominant epitopes”.

For the compound `CC[C@H](C)[C@H](NC(=O)[C@H](CCC(N)=O)NC(=O)[C@@H]1CCCN1C(=O)[C@H](C)NC(=O)[C@H](CCC(=O)O)NC(=O)[C@H](CO)NC(=O)[C@@H]1CCCN1C(=O)[C@H](C)NC(=O)[C@H](CC(N)=O)NC(=O)[C@H](CC(C)C)NC(=O)[C@H](CC(C)C)NC(=O)[C@@H](NC(=O)[C@H](CO)NC(=O)[C@H](CCCNC(=N)N)NC(=O)[C@H](CS)NC(=O)[C@H](C)NC(=O)[C@H](CCCNC(=N)N)NC(=O)[C@H](CCC(=O)O)NC(=O)[C@H](CC(C)C)NC(=O)[C@@H](NC(=O)[C@H](C)NC(=O)[C@H](Cc1ccc(O)cc1)NC(=O)[C@H](Cc1ccc(O)cc1)NC(=O)[C@@H](NC(=O)[C@@H](NC(=O)[C@@H](NC(=O)[C@@H]1CCCN1C(=O)[C@H](CC(C)C)NC(=O)[C@H](CO)NC(=O)[C@@H]1CCCN1C(=O)[C@@H]1CCCN1C(=O)[C@@H](N)CCC(N)=O)[C@@H](C)CC)[C@@H](C)O)C(C)C)C(C)C)C(C)C)C(=O)N[C@H](C(=O)N[C@@H](CCCNC(=N)N)C(=O)O)C(C)C` [HSV 36], the IC50 worked out at 173 nM in test [1]; 18 nM in [3]; 66 nM in test [4]; 120 nM in test [5] (IC50, DR11); 120 nM in test [5] (IC50 DR11); 3 nM in test [6] (Table V, read-out: IC50 DR1). Besides, the IC50 was 3 nM in test [6] (setting [12]); 1250 nM in test [8] (setting [13]); 1250 nM in test [8] (IC50 DR3, Table V, […]); 93 nM in [9] (setting [14]); 93 nM in test [9] (setting [15]); greater than 100 µM in test [10]. Further, the IC50 in test [10] (setting [16]) is greater than 100 µM. The compound also came in with a Range in [2] of 9. In test [7], the “immunodominance of epitopes” value was “immunodominant epitopes”.
